Results from ChEMBL document CHEMBL5465560, “Selectivity Literature for EUbOPEN Chemogenomic Library” (2024).

Experiments:
[1] = biological target: T1, Inhibitor of nuclear factor kappa-B kinase subunit alpha (Homo sapiens) (UniProt O15111); experiment: Selectivity interaction (KinomeScan (DiscoverX)) EUB0001079a CHUK; details: at 1 µM
T1 sequence (whole entry): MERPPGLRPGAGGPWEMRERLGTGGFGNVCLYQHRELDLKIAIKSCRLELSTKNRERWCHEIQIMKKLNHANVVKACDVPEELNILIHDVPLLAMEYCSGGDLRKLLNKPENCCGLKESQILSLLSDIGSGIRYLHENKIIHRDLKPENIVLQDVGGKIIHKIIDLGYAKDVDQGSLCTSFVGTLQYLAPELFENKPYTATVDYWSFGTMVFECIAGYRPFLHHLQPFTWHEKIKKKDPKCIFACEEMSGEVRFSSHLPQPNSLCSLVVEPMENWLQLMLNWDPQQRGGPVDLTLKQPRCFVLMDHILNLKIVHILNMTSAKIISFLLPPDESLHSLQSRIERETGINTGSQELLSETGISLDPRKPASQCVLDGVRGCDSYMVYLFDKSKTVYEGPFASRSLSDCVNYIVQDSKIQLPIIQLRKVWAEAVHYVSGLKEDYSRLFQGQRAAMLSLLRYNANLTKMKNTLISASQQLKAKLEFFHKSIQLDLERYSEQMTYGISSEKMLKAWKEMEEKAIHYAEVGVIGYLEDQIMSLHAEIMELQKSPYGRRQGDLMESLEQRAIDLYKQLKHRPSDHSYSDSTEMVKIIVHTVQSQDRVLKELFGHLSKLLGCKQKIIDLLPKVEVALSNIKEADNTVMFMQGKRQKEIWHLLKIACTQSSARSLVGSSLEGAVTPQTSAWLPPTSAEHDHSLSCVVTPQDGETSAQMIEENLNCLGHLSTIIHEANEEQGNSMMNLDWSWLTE

[2] = biological target: DNA (cytosine-5)-methyltransferase 3B (Homo sapiens) (UniProt Q9UBC3); experiment: Selectivity interaction (PWWP, WD40, and Tudor domain panel (DSLS measurements, literature)) EUB0000270b DNMT3B
[3] = biological target: Serine/threonine-protein kinase mTOR (Homo sapiens, UniProt P42345); experiment: Selectivity interaction (KinomeScan (DiscoverX)) EUB0001049a MTOR; details: at 1 µM
[4] = biological target: Casein kinase I isoform gamma-2 (Homo sapiens) (UniProt P78368); experiment: Selectivity interaction (ProQinase) EUB0000171b CSNK1G2
[5] = biological target: PAS domain-containing serine/threonine-protein kinase (Homo sapiens) (UniProt Q96RG2); experiment: Selectivity interaction (ProQinase) EUB0000171b PASK
[6] = biological target: T2, Protein kinase C epsilon type (Homo sapiens) (UniProt Q02156); experiment: Selectivity interaction (ProQinase) EUB0000171b PRKCE
T2 sequence (whole entry): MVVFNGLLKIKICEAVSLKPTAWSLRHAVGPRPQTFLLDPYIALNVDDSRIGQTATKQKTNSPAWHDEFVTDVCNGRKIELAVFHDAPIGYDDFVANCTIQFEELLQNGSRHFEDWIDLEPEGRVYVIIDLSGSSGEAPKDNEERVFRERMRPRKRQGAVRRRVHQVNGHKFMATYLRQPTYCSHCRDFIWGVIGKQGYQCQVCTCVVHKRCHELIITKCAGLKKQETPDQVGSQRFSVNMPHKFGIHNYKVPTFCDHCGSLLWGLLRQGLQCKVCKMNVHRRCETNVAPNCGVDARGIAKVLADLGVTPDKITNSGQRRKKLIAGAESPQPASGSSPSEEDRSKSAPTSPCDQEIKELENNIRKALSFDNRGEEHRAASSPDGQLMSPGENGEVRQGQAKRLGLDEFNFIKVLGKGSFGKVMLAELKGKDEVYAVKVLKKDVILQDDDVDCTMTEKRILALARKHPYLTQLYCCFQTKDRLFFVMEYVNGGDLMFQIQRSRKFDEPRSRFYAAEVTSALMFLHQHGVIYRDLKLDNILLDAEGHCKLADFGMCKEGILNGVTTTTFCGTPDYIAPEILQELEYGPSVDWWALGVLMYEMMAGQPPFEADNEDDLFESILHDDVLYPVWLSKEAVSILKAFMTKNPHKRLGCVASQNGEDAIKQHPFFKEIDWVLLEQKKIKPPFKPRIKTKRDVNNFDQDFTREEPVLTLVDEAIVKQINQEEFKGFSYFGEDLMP

[7] = biological target: Cyclin-dependent kinase 5 (Homo sapiens, UniProt Q00535); experiment: Selectivity interaction (ActivX KiNativ screen (ex vivo kinase selectivity in human PBMCs)) EUB0001619a CDK5; type: cell-based; details: PBMC, at 1 µM
[8] = biological target: Ribosomal protein S6 kinase alpha-1 (Homo sapiens, UniProt Q15418); experiment: Selectivity interaction (Kinase panel (literature)) EUB0001199aCl RPS6KA1; details: at 1 µM
[9] = biological target: Histone-lysine N-methyltransferase SETD2 (Homo sapiens) (UniProt Q9BYW2); experiment: Selectivity interaction (Methyltransferase screen (Scintillation proximity assays)) EUB0000255b SETD2
[10] = biological target: T3, Mitogen-activated protein kinase kinase kinase kinase 2 (Homo sapiens) (UniProt Q12851); experiment: Selectivity interaction (ActivX KiNativ screen (kinase selectivity in THP-1 cell lysates)) EUB0000639a MAP4K2; type: subcellular; details: lysate, at 0.2 µM
T3 sequence (whole entry): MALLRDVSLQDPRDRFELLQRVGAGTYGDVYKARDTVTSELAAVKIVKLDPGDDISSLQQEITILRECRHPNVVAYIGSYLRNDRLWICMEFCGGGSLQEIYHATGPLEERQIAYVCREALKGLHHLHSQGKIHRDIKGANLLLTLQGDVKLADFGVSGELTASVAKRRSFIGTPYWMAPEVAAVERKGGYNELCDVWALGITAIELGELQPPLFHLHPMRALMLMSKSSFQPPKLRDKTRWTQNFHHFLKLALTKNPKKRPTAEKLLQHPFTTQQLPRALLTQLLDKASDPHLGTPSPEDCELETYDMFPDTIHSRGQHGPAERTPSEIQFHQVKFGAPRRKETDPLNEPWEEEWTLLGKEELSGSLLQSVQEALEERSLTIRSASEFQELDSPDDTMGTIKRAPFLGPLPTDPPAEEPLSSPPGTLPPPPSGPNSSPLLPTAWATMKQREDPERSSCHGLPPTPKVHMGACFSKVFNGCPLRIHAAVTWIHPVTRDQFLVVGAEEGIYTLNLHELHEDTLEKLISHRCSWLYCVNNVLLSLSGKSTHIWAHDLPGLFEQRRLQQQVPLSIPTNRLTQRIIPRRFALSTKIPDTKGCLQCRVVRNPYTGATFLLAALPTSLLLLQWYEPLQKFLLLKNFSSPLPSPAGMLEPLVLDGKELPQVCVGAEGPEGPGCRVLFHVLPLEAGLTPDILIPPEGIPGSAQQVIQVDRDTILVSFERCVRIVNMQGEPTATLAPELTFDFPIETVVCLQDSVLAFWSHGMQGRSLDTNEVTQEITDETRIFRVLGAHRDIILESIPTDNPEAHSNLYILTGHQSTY

Chain of Casein kinase I isoform gamma-2 (Homo sapiens) (P78368 whole entry, looked up, the tested form may be a part, canonical isoform): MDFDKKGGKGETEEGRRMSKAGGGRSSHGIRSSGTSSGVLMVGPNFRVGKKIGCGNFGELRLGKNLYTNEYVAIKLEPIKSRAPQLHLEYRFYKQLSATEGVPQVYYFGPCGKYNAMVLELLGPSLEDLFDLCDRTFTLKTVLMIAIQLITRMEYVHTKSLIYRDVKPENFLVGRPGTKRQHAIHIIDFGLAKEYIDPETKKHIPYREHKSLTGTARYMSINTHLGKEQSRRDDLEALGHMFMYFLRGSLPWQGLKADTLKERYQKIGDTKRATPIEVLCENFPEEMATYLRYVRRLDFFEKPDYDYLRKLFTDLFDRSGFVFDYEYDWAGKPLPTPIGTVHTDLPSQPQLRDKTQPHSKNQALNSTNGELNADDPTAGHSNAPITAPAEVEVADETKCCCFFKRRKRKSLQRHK
Chain of PAS domain-containing serine/threonine-protein kinase (Homo sapiens) (Q96RG2 whole entry, the tested form may be a part): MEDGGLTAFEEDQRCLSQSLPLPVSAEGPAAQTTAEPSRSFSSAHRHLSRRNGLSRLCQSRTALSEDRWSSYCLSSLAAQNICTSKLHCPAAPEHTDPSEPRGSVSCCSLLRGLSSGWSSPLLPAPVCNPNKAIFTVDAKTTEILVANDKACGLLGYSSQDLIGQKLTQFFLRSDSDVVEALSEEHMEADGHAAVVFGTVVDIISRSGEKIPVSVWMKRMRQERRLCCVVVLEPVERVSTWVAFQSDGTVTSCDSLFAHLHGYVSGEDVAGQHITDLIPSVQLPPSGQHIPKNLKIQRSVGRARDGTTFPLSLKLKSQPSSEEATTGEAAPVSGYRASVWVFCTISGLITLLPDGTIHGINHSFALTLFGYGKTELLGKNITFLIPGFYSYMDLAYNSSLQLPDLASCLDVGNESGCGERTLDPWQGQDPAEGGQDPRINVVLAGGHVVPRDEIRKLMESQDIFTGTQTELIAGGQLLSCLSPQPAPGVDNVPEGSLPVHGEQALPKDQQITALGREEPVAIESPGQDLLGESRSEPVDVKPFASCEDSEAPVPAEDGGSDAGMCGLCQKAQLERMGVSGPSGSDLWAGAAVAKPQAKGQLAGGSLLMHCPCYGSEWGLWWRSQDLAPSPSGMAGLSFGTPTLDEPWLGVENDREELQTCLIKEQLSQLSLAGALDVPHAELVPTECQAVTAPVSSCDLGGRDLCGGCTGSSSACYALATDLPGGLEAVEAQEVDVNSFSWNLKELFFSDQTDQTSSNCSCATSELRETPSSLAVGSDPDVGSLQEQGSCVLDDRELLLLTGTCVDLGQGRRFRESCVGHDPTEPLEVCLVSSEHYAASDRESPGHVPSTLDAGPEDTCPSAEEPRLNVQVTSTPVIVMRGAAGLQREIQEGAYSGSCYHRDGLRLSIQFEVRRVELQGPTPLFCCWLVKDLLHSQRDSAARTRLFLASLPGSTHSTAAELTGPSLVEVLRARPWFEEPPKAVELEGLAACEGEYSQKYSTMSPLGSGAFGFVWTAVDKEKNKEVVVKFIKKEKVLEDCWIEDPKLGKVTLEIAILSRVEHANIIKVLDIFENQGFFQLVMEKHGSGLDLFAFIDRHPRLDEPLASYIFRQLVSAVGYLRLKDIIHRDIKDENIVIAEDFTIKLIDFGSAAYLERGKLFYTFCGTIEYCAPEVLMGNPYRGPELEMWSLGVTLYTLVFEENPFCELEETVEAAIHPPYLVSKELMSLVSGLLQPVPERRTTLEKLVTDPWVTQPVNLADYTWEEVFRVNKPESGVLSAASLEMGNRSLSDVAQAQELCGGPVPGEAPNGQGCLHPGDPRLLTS
Chain of Histone-lysine N-methyltransferase SETD2 (Homo sapiens) (Q9BYW2 whole entry): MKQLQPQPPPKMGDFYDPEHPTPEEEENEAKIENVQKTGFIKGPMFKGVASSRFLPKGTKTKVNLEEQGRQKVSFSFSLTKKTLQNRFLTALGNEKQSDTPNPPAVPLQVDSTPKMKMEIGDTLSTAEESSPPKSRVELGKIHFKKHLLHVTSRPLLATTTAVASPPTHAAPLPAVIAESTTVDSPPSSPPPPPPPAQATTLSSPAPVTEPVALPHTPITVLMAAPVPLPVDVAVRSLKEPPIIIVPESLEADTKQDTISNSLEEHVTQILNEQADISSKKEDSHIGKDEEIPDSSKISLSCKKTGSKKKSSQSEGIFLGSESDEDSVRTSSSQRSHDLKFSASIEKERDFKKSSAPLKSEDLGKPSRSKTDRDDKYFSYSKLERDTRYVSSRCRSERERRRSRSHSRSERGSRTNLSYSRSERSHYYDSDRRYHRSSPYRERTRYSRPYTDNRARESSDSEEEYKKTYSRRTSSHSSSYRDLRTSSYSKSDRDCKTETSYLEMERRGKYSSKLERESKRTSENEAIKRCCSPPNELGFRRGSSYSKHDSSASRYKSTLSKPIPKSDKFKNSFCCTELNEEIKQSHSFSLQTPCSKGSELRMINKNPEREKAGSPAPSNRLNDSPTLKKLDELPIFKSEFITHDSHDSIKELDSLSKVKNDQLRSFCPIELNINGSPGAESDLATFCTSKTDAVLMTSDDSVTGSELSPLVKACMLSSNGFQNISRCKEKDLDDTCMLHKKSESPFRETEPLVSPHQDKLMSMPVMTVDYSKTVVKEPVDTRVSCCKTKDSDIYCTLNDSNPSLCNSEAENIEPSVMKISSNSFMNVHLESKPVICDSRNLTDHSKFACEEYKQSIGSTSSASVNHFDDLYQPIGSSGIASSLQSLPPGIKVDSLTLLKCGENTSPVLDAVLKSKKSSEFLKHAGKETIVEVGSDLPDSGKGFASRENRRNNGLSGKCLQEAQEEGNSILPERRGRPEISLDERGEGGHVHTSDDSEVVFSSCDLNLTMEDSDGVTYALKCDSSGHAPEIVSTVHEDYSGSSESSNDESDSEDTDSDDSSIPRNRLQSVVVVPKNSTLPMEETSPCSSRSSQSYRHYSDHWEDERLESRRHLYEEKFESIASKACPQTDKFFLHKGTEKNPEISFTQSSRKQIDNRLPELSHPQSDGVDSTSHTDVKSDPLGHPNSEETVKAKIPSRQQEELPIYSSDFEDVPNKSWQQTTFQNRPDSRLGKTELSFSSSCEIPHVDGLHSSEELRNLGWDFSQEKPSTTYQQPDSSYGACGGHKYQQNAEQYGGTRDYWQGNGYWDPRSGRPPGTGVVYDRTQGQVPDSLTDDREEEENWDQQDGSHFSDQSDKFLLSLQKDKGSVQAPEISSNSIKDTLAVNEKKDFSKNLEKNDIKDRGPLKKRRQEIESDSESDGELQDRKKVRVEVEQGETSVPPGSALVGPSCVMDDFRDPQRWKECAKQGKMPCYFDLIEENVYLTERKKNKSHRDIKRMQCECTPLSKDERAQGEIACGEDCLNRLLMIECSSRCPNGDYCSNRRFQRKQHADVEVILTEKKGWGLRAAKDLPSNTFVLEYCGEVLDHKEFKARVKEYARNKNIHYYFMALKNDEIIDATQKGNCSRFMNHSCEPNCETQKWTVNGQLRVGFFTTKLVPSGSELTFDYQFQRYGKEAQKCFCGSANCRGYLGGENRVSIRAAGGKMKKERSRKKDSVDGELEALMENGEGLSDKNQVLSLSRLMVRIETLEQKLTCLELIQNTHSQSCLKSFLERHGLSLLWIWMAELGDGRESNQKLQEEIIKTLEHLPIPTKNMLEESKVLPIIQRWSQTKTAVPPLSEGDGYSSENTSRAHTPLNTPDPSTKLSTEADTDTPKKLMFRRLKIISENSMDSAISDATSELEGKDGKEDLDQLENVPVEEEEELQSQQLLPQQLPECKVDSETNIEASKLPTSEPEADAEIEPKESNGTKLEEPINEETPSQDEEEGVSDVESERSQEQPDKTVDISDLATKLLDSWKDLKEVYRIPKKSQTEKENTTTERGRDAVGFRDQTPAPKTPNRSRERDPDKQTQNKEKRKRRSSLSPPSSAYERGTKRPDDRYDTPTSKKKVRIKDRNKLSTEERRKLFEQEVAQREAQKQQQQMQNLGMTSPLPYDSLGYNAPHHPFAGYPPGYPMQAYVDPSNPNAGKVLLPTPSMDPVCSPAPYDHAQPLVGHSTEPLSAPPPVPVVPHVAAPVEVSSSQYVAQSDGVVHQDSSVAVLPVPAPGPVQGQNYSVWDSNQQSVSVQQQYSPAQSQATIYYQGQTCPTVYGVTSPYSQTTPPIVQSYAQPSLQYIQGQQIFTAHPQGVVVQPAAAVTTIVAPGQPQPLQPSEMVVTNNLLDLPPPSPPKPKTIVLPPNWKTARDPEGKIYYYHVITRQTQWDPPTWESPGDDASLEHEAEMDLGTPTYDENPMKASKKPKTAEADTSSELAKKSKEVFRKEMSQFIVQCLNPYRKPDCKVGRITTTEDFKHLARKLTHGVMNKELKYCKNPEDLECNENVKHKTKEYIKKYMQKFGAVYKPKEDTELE
Chain of Ribosomal protein S6 kinase alpha-1 (Q15418 whole entry): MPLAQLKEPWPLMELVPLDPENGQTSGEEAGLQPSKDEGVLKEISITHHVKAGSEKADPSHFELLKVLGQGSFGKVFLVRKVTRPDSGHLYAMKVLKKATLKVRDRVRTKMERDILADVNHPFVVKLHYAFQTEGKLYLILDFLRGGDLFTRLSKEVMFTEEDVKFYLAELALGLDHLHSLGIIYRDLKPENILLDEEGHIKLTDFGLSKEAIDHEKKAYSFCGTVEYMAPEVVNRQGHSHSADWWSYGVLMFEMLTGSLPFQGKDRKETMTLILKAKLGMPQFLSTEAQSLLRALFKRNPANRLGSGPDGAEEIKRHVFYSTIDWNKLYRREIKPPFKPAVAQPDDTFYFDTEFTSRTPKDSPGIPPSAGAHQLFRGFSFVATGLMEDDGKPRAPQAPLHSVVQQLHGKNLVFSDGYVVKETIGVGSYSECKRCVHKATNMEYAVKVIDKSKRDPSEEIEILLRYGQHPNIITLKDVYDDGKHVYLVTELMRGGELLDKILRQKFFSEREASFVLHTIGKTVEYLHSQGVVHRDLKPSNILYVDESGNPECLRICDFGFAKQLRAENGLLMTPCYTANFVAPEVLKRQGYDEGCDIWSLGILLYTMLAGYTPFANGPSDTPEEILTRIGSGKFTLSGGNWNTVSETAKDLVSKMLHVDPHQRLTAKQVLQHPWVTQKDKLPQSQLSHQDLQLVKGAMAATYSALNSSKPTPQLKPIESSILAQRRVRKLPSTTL

Nc1cnc(N2CCc3cc(S(=O)(=O)Nc4c(F)cc(Cl)cc4F)cc(N4CCCC4=O)c32)nc1 [TP-020n]
% of control [1]: 100%

Cc1cc(CN)cc(C)c1-c1ncn(C)c1-c1cncn1C
dTagg [2]: 0 K

COc1cc(Nc2nc(C)cc(-c3cnn4nc(OC)ccc34)n2)cc(C(F)(F)F)c1
% of control [3]: 100%

C=CC(=O)Nc1cccc(C(=O)Nc2ccc(Nc3cc(-c4[nH]c(SC)nc4C)ccn3)cc2)c1
% of control ([4]; at 1 µM): 22% | % of control ([4]; at 5 µM): 5% | % of control ([5]; at 1 µM): 81% | % of control ([5]; at 5 µM): 55% | % of control ([6]; at 1 µM): 97% | % of control ([6]; at 5 µM): 108%

N#Cc1cccc(-c2c[nH]c3ncnc(N4CCOCC4)c23)c1
% of inhibition [7]: -9%

CN1Cc2nccc(-c3cn(C)nc3-c3ccc(F)cc3)c2C1=O
% of inhibition [8]: 18%

COCCN1CCC(c2cc(CN(C)C(=O)c3cccc(Oc4ccccc4)c3)ccn2)CC1
% activity ([9]; at 1 µM): > 95% | % activity ([9]; at 10 µM): > 90%

CC[C@@H]1[C@H](F)C(=O)N[C@@H]1COc1nccc2cc(C(N)=O)c(OC)cc12 [ZIMLOVISERTIB]
% of inhibition [10]: 10.3%
